Read-outs that look alike come from different tables or passages of the source. Values belong to the compound of their own block, whether it stands above or below them.
Key:
NAT-2 [1] = target: T1, NAT-2 (Homo sapiens, UniProt P11245); experiment: Acetylation in human liver subcellular preparation (cytosol), NAT-2 substrates, cross inhibition; assay type: biochemical; parameters: from tissue; host or cells: human liver cytosol (105,000 g supernatant); key to inhibition of acetylation of substrate DDS / inhibition of acetylation of substrate SMZ / inhibition of acetylation of substrate INH: ++ = strong inhibition; −− = no inhibition; conditions: for formation of acetylated metabolite, substrate incubated alone: incubated separately with human liver cytosol
T1 sequence (P11245 1-290): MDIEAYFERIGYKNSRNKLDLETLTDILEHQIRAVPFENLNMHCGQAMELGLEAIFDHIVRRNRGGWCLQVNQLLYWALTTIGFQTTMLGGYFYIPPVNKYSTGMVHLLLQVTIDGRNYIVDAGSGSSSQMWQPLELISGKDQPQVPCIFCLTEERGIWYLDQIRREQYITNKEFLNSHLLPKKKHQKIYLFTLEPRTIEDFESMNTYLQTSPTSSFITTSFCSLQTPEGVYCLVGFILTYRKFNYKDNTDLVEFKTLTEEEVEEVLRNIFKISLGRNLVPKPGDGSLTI
Description: The reaction was terminated by the addition of perchloric acid to a final concentration of 1.5%.
INH, DDS, SMZ were incubated with human liver subcellular preparations as described in Example 1. The reactions were allowed to proceed for thirty minutes at 37° C. before termination by addition of perchloric acid. […] For INH, 1-octanesulfonic acid (5 mM) was added to the mobile phase.

NAT-1 [2] = target: T2, NAT-1 (Homo sapiens, UniProt P18440); experiment: Acetylation in human liver subcellular preparation (cytosol), NAT-1 substrates, HPLC of N-acetylated metabolites
T2 sequence (P18440 1-290): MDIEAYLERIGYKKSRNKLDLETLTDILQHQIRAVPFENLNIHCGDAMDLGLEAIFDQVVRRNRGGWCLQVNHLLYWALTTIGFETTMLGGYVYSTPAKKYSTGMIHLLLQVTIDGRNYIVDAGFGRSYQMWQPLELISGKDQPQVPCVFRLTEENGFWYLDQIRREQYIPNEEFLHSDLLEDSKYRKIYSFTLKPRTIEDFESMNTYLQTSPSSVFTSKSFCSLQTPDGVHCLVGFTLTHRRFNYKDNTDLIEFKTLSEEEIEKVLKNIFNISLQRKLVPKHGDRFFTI
Description: Human liver was homogenized and prepared by high-speed differential centrifugation. A preliminary centrifugation was performed at 13,000 g for 20 min.
The formation of N-acetylated metabolites was quantified by HPLC. Samples from the incubates were injected onto a reverse-phase column (e.g., Waters Symmetry C18, 5 micron, 4.6×150 mm). […] Drugs and their N-acetylated metabolites were quantitated by UV absorption using a diode-array detector.
The substrates assayed above were then co-incubated with human liver subcellular preparations.

NAT-1 [3] = target: T2, NAT-1; conditions: human volunteer
Description: On the fourth and fifth days, PAS was also administered at its standard dose of 4 g every 8 hours.

NAT-1 [4] = target: T2, NAT-1; conditions: 4 hours
Description: Human hepatocytes were incubated at 37° C. at a ratio of 1 million cells per ml in modified Williams E buffer. Either cryopreserved hepatocytes in suspension or freshly-isolated hepatocytes attached to microtiter plates were used. The reaction was initiated by addition of substrate, and terminated after 4 hours by the addition of perchloric acid. As before, parallel incubations were conducted for drug alone versus drug plus potential inhibitors. Percent inhibition was calculated from the ratio of [Acetylated metabolite]/[parent] with and without the potential inhibitor.

NAT-2 [5] = target: T1, NAT-2; experiment: Acetylation in human hepatocyte culture, NAT-2 substrates; assay type: cell-based; conditions: human hepatocytes
Description: INH, DDS and SMZ were incubated with human hepatocytes as described in Example 1. Parallel cultures were conducted for each drug alone and each drug plus dichlorphenamide as a potential inhibitor. An additional culture of DDS was incubated with SMZ, a potential inhibitor. […] In addition, SMZ inhibited acetylation of DDS.

[6] = human liver cytosol, 30 min, 37° C.

SMILES: CCC1(c2ccc(N)cc2)CCC(=O)NC1=O (stereo not shown) [AG, aminoglutethimide]
inhibition of acetylation of substrate SMZ (NAT-2 [1]; [6]): ++

SMILES: Nc1ccc(C(=O)O)c(O)c1 [PAS, para-amino-salicylate]
inhibition of acetylation to Ac-PABA (NAT-1 [2]; 200 μM inhibitor co-incubated with 20 μM PABA, human liver cytosol, 15 min, 37° C.): blockage of all measurable acetylation | inhibition of acetylation to Ac-SMX (NAT-1 [2]; 200 μM inhibitor co-incubated with 200 μM SMX, human liver cytosol, 15 min, 37° C.): 50% | formation of acetylated metabolite, substrate incubated alone (NAT-1 [2]; human liver subcellular preparation, HPLC, FIG. 1): a single metabolic peak | PAS concentrations in plasma on Day 5 (NAT-1 [3]; PAS 4 g every 8 hours, HPLC, FIG. 5): exceed the levels required to inhibit NAT-1 | plasma concentration of Ac-SMX, Day 5 (with PAS) vs Day 3 (baseline) (NAT-1 [3]; SMX 500 mg every 12 hours for 5 days, PAS 4 g every 8 hours on days 4 and 5, FIG. 2): almost completely abolished | reduction of Ac-SMX formation (NAT-1 [4]; 200 μM PAS co-incubated with 200 μM SMX, human hepatocytes): 60% | formation of acetylated metabolite, substrate incubated alone (NAT-1 [4]; 200 μM incubated separately with human hepatocytes): formation of Ac-PAS and Ac-SMX

SMILES: Nc1ccc(S(=O)(=O)c2ccc(N)cc2)cc1 [DDS, dapsone]
formation of acetylated metabolite, substrate incubated alone (NAT-2 [1]): Acetylated metabolites were found

SMILES: NNC(=O)c1ccncc1 [INH, isoniazid]
formation of acetylated metabolite, substrate incubated alone (NAT-2 [1]): Acetylated metabolites were found | inhibition of acetylation of substrate DDS (NAT-2 [1]; [6]): ++

Other lines, results leading:

inhibition of acetylation to Ac-PAS (NAT-1 [2]; 200 μM inhibitor co-incubated with 20 μM PAS, human liver cytosol, 15 min, 37° C.): no Ac-PAS was detected
SMILES: Nc1ccc(C(=O)O)cc1 [PABA, para-amino-benzoic acid]

inhibition of acetylation of all substrates (INH, DDS, SMZ) (NAT-2 [5]; substrates INH, DDS and SMZ): strongly inhibited | inhibition of acetylation of substrate DDS (NAT-2 [1]; [6]): ++ | inhibition of acetylation of substrate INH (NAT-2 [1]; substrate INH, human liver cytosol, 30 min, 37° C.): −− | inhibition of acetylation of substrate SMZ (NAT-2 [1]; [6]): ++
SMILES: NS(=O)(=O)c1cc(Cl)c(Cl)c(S(N)(=O)=O)c1 [dichlorphenamide]

inhibition of acetylation of DDS (NAT-2 [5]; substrate DDS): inhibited | formation of acetylated metabolite, substrate incubated alone (NAT-2 [1]): Acetylated metabolites were found | inhibition of acetylation of substrate DDS (NAT-2 [1]; [6]): ++
SMILES: Cc1cc(C)nc(NS(=O)(=O)c2ccc(N)cc2)n1 [SMZ, sulphamethazine]
